Structures are written as SMILES. Like-named read-outs stand apart in the source and are kept apart here.

Here are results for twelve molecules from PMC4679366 (European journal of medicinal chemistry, 2014).

One experiment deals with P. falciparum. The conditions noted are these: read-out: P. falciparum IC50; cited from earlier work.
Experiment [1] has as its system P. berghei exo-erythrocytic forms (EEF). Briefly: Pb liver stage assay. The note with it: Plasmodium berghei, 48 h, read-out: Pb EEF IC50, P. berghei exo-erythrocytic forms in HepG2-A16-CD81EGFP cells, 48 h. Type of experiment: cell-based.
For experiment [2], the system named is P. falciparum 3D7. In words: Asexual stage in vitro antimalarial assay, [3H]-hypoxanthine incorporation. The conditions noted are these: Plasmodium falciparum, 3D7, read-out: Pf 3D7 IC50. In kind it is cell-based.
For experiment [3], the system named is P. falciparum NF54 late stage gametocytes (IV–V). Briefly: Late stage P. falciparum. The conditions noted are these: Plasmodium falciparum, NF54, HN12, 72 h, read-out: Pf LSG IC50. Type of experiment: cell-based.
The test system of another experiment is HepG2 liver cells. Briefly: HepG2 toxicity assay. Type of experiment: cell-based. The note with it: Homo sapiens, HepG2, read-out: HepG2 IC50.
Another experiment deals with human HDAC4. The note with it: cited from earlier work.
The subject of a further experiment is human HDAC5. The conditions noted are these: cited from earlier work.
Another experiment concerns P. falciparum histone H4. In words: Histone hyperacetylation assay. Type of experiment: cell-based, Plasmodium falciparum. The note with it: 500 nM, 3 h, trophozoite-stage 3D7, Western blot anti-acetyl H4.
The next experiment has as its system P. falciparum histone H3. In words: Histone hyperacetylation assay. Type of experiment: cell-based, Plasmodium falciparum. The conditions noted are these: 500 nM, 3 h, trophozoite-stage 3D7, Western blot anti-acetyl H3. (In general: Immunoblotting shows a protein as a band on a membrane.)
The test system of experiment [4] is P. falciparum 3D7. The note with it: read-out: Pf 3D7 IC50, asexual blood stages; cited from earlier work.

On to `CCCCc1nc2cc(/C=C/C(=O)NO)ccc2n1CCN(CC)CC` [SB939], for which, in the experiment on P. falciparum, the half-maximal inhibitory concentration (IC50) (in general, the concentration that gives 50% inhibition) is 80 to 150 nM.

With `CCCCCCOc1ccc(C(=O)NOCCCCCC(=O)NO)cc1` [Compound 1s, 4-(Hexyloxy)-N-((6-(hydroxyamino)-6-oxohexyl)oxy)benzamide], the IC50 in experiment [1] was above 5 µM.

Turning to `CCN(CC)CCCC(C)Nc1ccnc2cc(Cl)ccc12` (stereo not drawn) [Chloroquine], the IC50 in the experiment with P. falciparum 3D7 [2] is 10 nM; in [3], above 120 µM.

As to `CCCOc1ccc(C(=O)NOCCCCCC(=O)NO)cc1` [Compound 1m, N-((6-(Hydroxyamino)-6-oxohexyl)oxy)-4-propoxybenzamide], the IC50 in experiment [1] was above 5 µM.

Regarding `O=C(/C=C/c1ccccc1)N[C@@H](CCCCCC(=O)NO)C(=O)Nc1cccc2cccnc12` [Compound 2-ASA-9], the IC50 in the experiment on P. falciparum was 15 to 39 nM.

With `O=C1C(O)=C([C@H]2CC[C@H](c3ccc(Cl)cc3)CC2)C(=O)c2ccccc21` [Atovaquone], the 50% inhibitory concentration (IC50) with HepG2 liver cells was above 10 µM.

Take `Cc1cc(C)cc(C(=O)NOCCCCCC(=O)NO)c1` [Compound 1a]: the “human HDAC4 IC50” value in the experiment on human HDAC4 is recorded as “low nanomolar”. The “human HDAC5 IC50” value in the experiment with human HDAC5 is “low nanomolar”.

In the case of `CC(/C=C/C(=O)NO)=C\[C@@H](C)C(=O)c1ccc(N(C)C)cc1` [TSA, Trichostatin A], in the experiment on P. falciparum histone H4, the “hyperacetylation of P. falciparum histone H4” value is on record as “caused hyperacetylation”. Also, the IC50 in the experiment with P. falciparum was 8 to 11 nM.

With `CCCCCOc1ccc(C(=O)NOCCCCCC(=O)NO)cc1` [Compound 1n, N-((6-(Hydroxyamino)-6-oxohexyl)oxy)-4-(pentyloxy)benzamide], in experiment [1], the IC50 is above 5 µM.

For the molecule `Nc1cccc(-c2csc(NC(=O)CCCCCCC(=O)NO)n2)c1` [WR301801 (YC-II-88)], the IC50 with P. falciparum is 0.6 to 1.8 nM.

Regarding `Cc1ccc(C(=O)NOCCCCCC(=O)NO)cc1C` [Compound 1b], the “hyperacetylation of P. falciparum histone H3” value in the experiment on P. falciparum histone H3 is given as “to a lesser extent”.

In the case of `O=C(CCCCCCC(=O)Nc1ccccc1)NO` [SAHA, suberoylanilide hydroxamic acid], in the experiment on P. falciparum 3D7 [4], the 50% inhibitory concentration (IC50) was 130 nM.
